Test [1] has as its target IDH1 R132H enzyme (Homo sapiens (Human), UniProt O75874, R132H). In words: Mutant IDH1 R132H biochemical assay. The following applies: NADPH consumption, luminescent readout; 1.5 nM enzyme, 250 μM α-KG, 1 μM NADPH, 30 minutes, 32° C.; test range 0.002-10 μM. The protocol: mIDH1 catalyzes the NADPH-dependent reduction of alpha-ketoglutarate (α-KG) to (2R)-2-hydroxyglutarate (2-HG). NADPH consumption was measured by luminescent readout.
The biochemical reactions were performed at 32° C. in 384-well plates using a reaction volume of 41 μl and the following assay buffer conditions: 50 mM Tris pH 7.5, 100 mM NaCl, 20 mM MgCl2, 0.05% BSA, 0.01% Brij, 1 μM NADPH, and 250 μM α-KG. […] Test compounds were used in a concentration range between 0.002 and 10 μM. The final DMSO concentration was 2.4%.
The reaction was incubated for 30 minutes, then 40 μl of detection mix (0.75 μg/ml Luciferase, 0.02 U/ml Oxidoreductase, 4 μg/ml FMN, 2 μl/ml Decanal/Ethanol, 50 mM Tris pH 7.5, 0.5% Glycerin, 0.01% Tween-20, 0.05% BSA) was added. Luminescence was measured on a luminescent reader (10 seconds measuring time, 1 second integration period, 30% sensitivity). The decrease in luminescence is proportional to mIDH1 activity. IC50 values are determined by interpolation from plots of relative luminescence versus inhibitor concentration.

Test [2] concerns the target mutated isocitrate dehydrogenase (mIDH) protein overexpressed in LN229 R132H cells (Homo sapiens (Human), UniProt O75874, R132H). Put plainly: Mutant IDH1 cellular assay (2-HG in medium of LN229 R132H cells). Format: cell-based. The following applies: 24 hours, fluorescence readout. Here is the method: Mutant IDH1 Cellular Assay
Levels of (2R)-2-hydroxyglutarate (2HG) were measured in medium of a cell line with overexpression of mutated isocitrate dehydrogenase (mIDH) protein. mIDH catalyzes the NADPH-dependent reduction of alpha-ketoglutarate to 2-HG. Cells (LN229 R132H, Mohrenz et al., Apoptosis (2013) 18:1416-1425) were grown in DMEM containing 10% FCS. They were harvested by trypsin and seeded into 96-well plates. Cells were incubated overnight at 37° C. in 5% CO2. The next day test compounds were added to each cell well. The final concentration of DMSO was 0.1% and DMSO controls were included. The plates were then placed in an incubator for 24 hours.
2-HG was measured according to Balss et al. (Acta Neuropathol (2012) 124: 883-891). Briefly, HClO4 was added to each well and the plates were centrifuged. Aliquots are removed and incubated with hydroxyglutarate dehydrogenase (HGDH), diaphorase, NAD+, and resazurin. The conversion of resazurin to resorufin was detected by fluorescence spectroscopy at Ex 540 nm Em 600 nm. The increase in fluorescence is proportional to 2-HG production. IC50 values are determined by interpolation from plots of relative fluorescence vs inhibitor concentration.

Structures are written as SMILES.

mutated isocitrate dehydrogenase (mIDH) protein overexpressed in LN229 R132H cells, sequence (O75874 whole entry R132H): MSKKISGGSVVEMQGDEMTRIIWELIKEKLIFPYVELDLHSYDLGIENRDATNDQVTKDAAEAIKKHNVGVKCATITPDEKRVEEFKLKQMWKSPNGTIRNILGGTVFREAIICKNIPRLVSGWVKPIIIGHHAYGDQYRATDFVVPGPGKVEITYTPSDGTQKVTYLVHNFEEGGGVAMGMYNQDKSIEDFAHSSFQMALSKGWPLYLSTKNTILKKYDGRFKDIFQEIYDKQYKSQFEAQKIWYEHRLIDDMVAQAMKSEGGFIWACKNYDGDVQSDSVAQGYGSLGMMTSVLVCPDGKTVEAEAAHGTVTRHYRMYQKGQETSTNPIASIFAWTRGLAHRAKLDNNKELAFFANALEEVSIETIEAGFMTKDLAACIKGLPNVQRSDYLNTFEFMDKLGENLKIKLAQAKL
IDH1 R132H enzyme, sequence (O75874 whole entry R132H): as above

Take `Cc1n[nH]c(C)c1-c1ccc2c(c1)nc(Nc1ccc(SC(F)(F)F)cc1)n2[C@@H]1C[C@H](C)CC(C)(C)C1` (stereo in doubt) [Example 2-10-1]: the values for the IC50 in test [1] and in test [2] were 0.3 µM and 10 µM, respectively.

Take `Cc1n[nH]c(C)c1-c1ccc2c(c1)nc(Nc1ccc(SC(F)(F)F)cc1)n2[C@H]1C[C@@H](C)CC(C)(C)C1` (stereo in doubt) [Example 2-10-2]: the values for the IC50 in test [1] and in test [2] were 0.14 µM and 3 µM, respectively.

Turning to `Cc1n[nH]c(C)c1-c1ccc2c(c1)nc(Nc1ccc(SC(F)(F)F)cc1)n2[C@@H]1C[C@H](C)CC(C)(C)C1` (stereo in doubt) [Example 2-10], the half-maximal inhibitory concentration (IC50) – broadly, the concentration that inhibits the measured activity by half – in test [1] is 0.14 µM; in test [2], 2 µM.

For `C[C@H]1C[C@@H](n2c(Nc3ccc(OC(F)(F)F)cc3)nc3cc(-c4cccc(C(N)=O)c4)ccc32)CC(C)(C)C1` (stereo in doubt) [Example 2-11], the IC50 in test [1] is 0.21 µM; in test [2] it was 2.8 µM.

`Cc1cc(-c2ccc3c(c2)nc(Nc2ccc(OC(F)(F)F)cc2)n3[C@@H]2C[C@H](C)CC(C)(C)C2)n(C)n1` (stereo in doubt) [Example 2-12]: the figures for the IC50 in test [1] and in test [2] were 0.1 µM and 8 µM, respectively.

With `C[C@H]1C[C@@H](n2c(Nc3ccc(OC(F)(F)F)cc3)nc3cc(-c4cnn(C)c4)ccc32)CC(C)(C)C1` (stereo in doubt) [Example 2-13], the IC50 turned out to be 1.1 µM in test [1] and 5 µM in test [2].

Consider `Cc1nn(C)c(C)c1-c1ccc2c(c1)nc(Nc1ccc(OC(F)(F)F)cc1)n2[C@@H]1C[C@H](C)CC(C)(C)C1` (stereo in doubt) [Example 2-19], for which the IC50 in test [1] is 1.9 µM; in test [2] it was 10 µM.

With `Cc1noc(C)c1-c1ccc2c(c1)nc(Nc1ccc(SC(F)(F)F)cc1)n2[C@@H]1C[C@H](C)CC(C)(C)C1` (stereo in doubt) [Example 2-21-1], the IC50 in test [1] worked out at 1.1 µM; in test [2], 10 µM.

In the case of `Cc1noc(C)c1-c1ccc2c(c1)nc(Nc1ccc(SC(F)(F)F)cc1)n2[C@H]1C[C@@H](C)CC(C)(C)C1` (stereo in doubt) [Example 2-21-2], the 50% inhibitory concentration (IC50) in test [1] came out at 0.29 µM; in test [2] it was 2.5 µM.

Take `C[C@H]1C[C@@H](n2c(Nc3ccc(SC(F)(F)F)cc3)nc3cc(-c4ccn[nH]4)ccc32)CC(C)(C)C1` (stereo in doubt) [Example 2-22]: the IC50 in test [1] came to 0.77 µM; in test [2] it was 2.5 µM.

On to `Cc1noc(C)c1-c1ccc2c(c1)nc(Nc1ccc(C(F)(F)F)cc1)n2[C@H]1C[C@@H](C)CC(C)(C)C1` (stereo in doubt) [Example 2-23-2], for which the half-maximal inhibitory concentration (IC50) in test [1] was 0.18 µM; in test [2], 10 µM.

For the molecule `Cc1n[nH]c(C)c1-c1ccc2c(c1)nc(Nc1ccc(C(F)(F)F)cc1)n2[C@H]1C[C@@H](C)CC(C)(C)C1` (stereo in doubt) [Example 2-24-2], the half-inhibitory concentration (IC50) in test [1] was found to be 0.14 µM; in test [2], 7 µM.

Regarding `Cc1nc(-c2ccc3c(c2)nc(Nc2ccc(OC(F)(F)F)cc2)n3C2CC(C)(C)CC(C)(C)C2)no1` [Example 2-26, 5-(5-Methyl-1,2,4-oxadiazol-3-yl)-1-(3,3,5,5-tetramethylcyclohexyl)-N-[4-(trifluoromethoxy)phenyl]-1H-benzimidazol-2-amine], the values for the IC50 in test [1] and in test [2] were 0.22 µM and 10 µM, respectively.

As to `CC1(C)CC(n2c(Nc3ccc(OC(F)(F)F)cc3)nc3cc(-c4nnn[nH]4)ccc32)CC(C)(C)C1` [Example 2-28, 1-(3,3,5,5-tetramethylcyclohexyl)-5-(1H-tetrazol-5-yl)-N-[4-(trifluoromethoxy)-phenyl]-1H-benzimidazol-2-amine], the IC50 is 0.07 µM in test [1] and 0.2 µM in test [2].

As to `Cc1cc2c(cc1-c1c(C)n[nH]c1C)nc(Nc1ccc(OC(F)(F)F)cc1)n2C1CC(C)(C)CC(C)(C)C1` [Example 2-29, 5-(3,5-dimethyl-1H-pyrazol-4-yl)-6-methyl-1-(3,3,5,5-tetramethylcyclohexyl)-N-[4-(trifluoromethoxy)phenyl]-1H-benzimidazol-2-amine], the 50% inhibitory concentration (IC50) came to 4 µM in test [1] and 2.7 µM in test [2].

On to `Cc1nnc(-c2cc3nc(Nc4ccc(OC(F)(F)F)cc4)n(C4CC(C)(C)CC(C)(C)C4)c3cc2C)[nH]1` [Example 2-30, 6-methyl-5-(5-methyl-4H-1,2,4-triazol-3-yl)-1-(3,3,5,5-tetramethylcyclohexyl)-N-[4-(trifluoromethoxy)phenyl]-1H-benzimidazol-2-amine], for which the figures for the IC50 in test [1] and in test [2] were 0.12 µM and 1.5 µM, respectively.

Take `Cc1cc2c(cc1C1OC(=O)NC1=O)nc(Nc1ccc(OC(F)(F)F)cc1)n2C1CC(C)(C)CC(C)(C)C1` (stereo not drawn) [Example 2-36, 5-[6-methyl-1-(3,3,5,5-tetramethylcyclohexyl)-2-{[4-(trifluoromethoxy)phenyl]amino}-1H-benzimidazol-5-yl]-1,3-oxazolidine-2,4-dione]: the IC50 was found to be 0.014 µM in test [1] and 0.022 µM in test [2].

Take `Cc1cc2c(cc1-c1cc(O)no1)nc(Nc1ccc(OC(F)(F)F)cc1)n2C1CC(C)(C)CC(C)(C)C1` [Example 2-37, 5-[6-methyl-1-(3,3,5,5-tetramethylcyclohexyl)-2-{[4-(trifluoromethoxy)phenyl]amino}-1H-benzimidazol-5-yl]-1,2-oxazol-3-ol]: the results for the IC50 in test [1] and in test [2] were 0.03 µM and 0.25 µM, respectively.
